Test [1] deals with T47D (PI3Kα-H1047R) cell line. The experiment in a line: HTRF phospho-AKT(S473) cell assay in T47D cells. Conditions: Homo sapiens; HTRF phospho-AKT(S473), T47D (PI3Kα-H1047R) cells, 2 hours compound incubation. It counts as cell-based, human. In outline:
(§1)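 Cells plated overnight (T47D in RPMI/10% FBS/0.2 units/mL insulin; SKBR3 in McCoy's 5A/10% FBS), then given 12-point 1:3 compound series (top 5 μM T47D, 10 μM SKBR3; ≤0.5% DMSO) for 2 h at 37° C. SKBR3 stimulated with 70 ng/ml PDGF-BB for final 15 min. Lysate pAKT(S473) by HTRF; IC50 calculated.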

Test [2] deals with SKBR3 (PI3Kα-Wild Type) cell line. The experiment in a line: HTRF phospho-AKT(S473) cell assay in SKBR3 cells. In kind it is cell-based, human. To be noted: Homo sapiens, SK-BR-3; HTRF phospho-AKT(S473), SKBR3 (PI3Kα-Wild Type) cells, 2 hours compound incubation, PDGF-BB stimulated. In outline:
as §1

In the case of `Cc1cc([C@@H](C)Nc2ccc(Cl)nc2C(=O)NS(C)(=O)=O)c2nc(N3CCC[C@H](c4nccc(C)n4)C3)n(C)c(=O)c2c1` (relative stereo) [Compound 648, 6-chloro-3-(((R)-1-(3,6-dimethyl-2-((R*)-3-(4-methylpyrimidin-2-yl)piperidin-1-yl)-4-oxo-3,4-dihydroquinazolin-8-yl)ethyl)amino)-N-(methylsulfonyl) picolinamide], the half-maximal inhibitory concentration (IC50) in test [1] is 1 to 5 µM; in test [2], no less than 5 µM.
`Cc1cc([C@@H](C)Nc2ccc(Cl)nc2C(=O)NS(C)(=O)=O)c2nc(N3CC[C@H](c4cnc(C)c(C#N)c4)C3)n(C)c(=O)c2c1` (relative stereo) [Compound 656, 6-chloro-3-(((R)-1-(2-((R*)-3-(5-cyano-6-methylpyridin-3-yl)pyrrolidin-1-yl)-3,6-dimethyl-4-oxo-3,4-dihydroquinazolin-8-yl)ethyl)amino)-N-(methylsulfonyl) picolinamide]: the half-inhibitory concentration (IC50) in test [1] fell in the range of 0.25 to 0.5 µM; in test [2], 1 to 5 µM.
As to `Cc1cc([C@@H](C)Nc2ccc(Cl)nc2C(=O)NS(C)(=O)=O)c2nc(N3CC[C@@H](c4cnc(C)nc4)C3)n(C)c(=O)c2c1` (relative stereo) [Compound 657, 6-chloro-3-(((R)-1-(3,6-dimethyl-2-((R*)-3-(2-methylpyrimidin-5-yl)pyrrolidin-1-yl)-4-oxo-3,4-dihydroquinazolin-8-yl)ethyl)amino)-N-(methylsulfonyl) picolinamide], the half-inhibitory concentration (IC50) in test [1] is 0.25 to 0.5 µM; in test [2] it was no less than 5 µM.
Take `Cc1cc([C@@H](C)Nc2ccc(Cl)nc2C(=O)NS(C)(=O)=O)c2nc(N3CC[C@H](c4cnc(C)nc4)C3)n(C)c(=O)c2c1` (relative stereo) [Compound 658, 6-chloro-3-(((R)-1-(3,6-dimethyl-2-((R*)-3-(2-methylpyrimidin-5-yl)pyrrolidin-1-yl)-4-oxo-3,4-dihydroquinazolin-8-yl)ethyl)amino)-N-(methylsulfonyl) picolinamide]: the IC50 in test [1] was 0.5 to 1 µM; in test [2], no less than 5 µM.
Regarding `Cc1cc([C@@H](C)Nc2ccc(Cl)nc2C(=O)NS(C)(=O)=O)c2nc(N3CC[C@@H](c4ccc(C)nc4)C3)n(C)c(=O)c2c1` (relative stereo) [Compound 659, 6-chloro-3-(((R)-1-(3,6-dimethyl-2-((R*)-3-(6-methylpyridin-3-yl)pyrrolidin-1-yl)-4-oxo-3,4-dihydroquinazolin-8-yl)ethyl)amino)-N-(methylsulfonyl) picolinamide], the half-inhibitory concentration (IC50) is less than 0.25 µM in test [1] and 1 to 5 µM in test [2].
For `Cc1cc([C@@H](C)Nc2ccc(Cl)nc2C(=O)NS(C)(=O)=O)c2nc(N3CC[C@H](c4ccc(C)nc4)C3)n(C)c(=O)c2c1` (relative stereo) [Compound 660, 6-chloro-3-(((R)-1-(3,6-dimethyl-2-((R*)-3-(6-methylpyridin-3-yl)pyrrolidin-1-yl)-4-oxo-3,4-dihydroquinazolin-8-yl)ethyl)amino)-N-(methylsulfonyl) picolinamide], the IC50 is 0.25 to 0.5 µM in test [1] and no less than 5 µM in test [2].
In the same order, the values of `Cc1cc([C@@H](C)Nc2ccc(Cl)nc2C(=O)NS(C)(=O)=O)c2nc(N3CC[C@H](Oc4ccc(F)cc4)C3)n(C)c(=O)c2c1` (relative stereo) [Compound 691, 6-chloro-3-(((R)-1-(2-((R*)-3-(4-fluorophenoxy)pyrrolidin-1-yl)-3,6-dimethyl-4-oxo-3,4-dihydroquinazolin-8-yl)ethyl)amino)-N-(methylsulfonyl) picolinamide] are 0.25 to 0.5 µM and no less than 5 µM.
As for `Cc1cc([C@@H](C)Nc2ccc(Cl)nc2C(=O)NS(C)(=O)=O)c2nc(N3CCC[C@H](c4c[nH]nc4C)C3)n(C)c(=O)c2c1` (relative stereo) [Compound 703, 6-chloro-3-(((R)-1-(3,6-dimethyl-2-((R*)-3-(3-methyl-1H-pyrazol-4-yl)piperidin-1-yl)-4-oxo-3,4-dihydroquinazolin-8-yl)ethyl)amino)-N-(methylsulfonyl) picolinamide], the concentration for half-maximal inhibition (IC50) in test [1] was 0.25 to 0.5 µM; in test [2] it was no less than 5 µM.
For the compound `Cc1cc([C@@H](C)Nc2ccc(Cl)nc2C(=O)NS(C)(=O)=O)c2nc(N3C[C@H]4CC4(c4cnc(C)cn4)C3)n(C)c(=O)c2c1` (relative stereo) [Compound 749, 6-chloro-3-(((R)-1-(3,6-dimethyl-2-((1R*,5S*)-1-(5-methylpyrazin-2-yl)-3-azabicyclo[3.1.0]hexan-3-yl)-4-oxo-3,4-dihydroquinazolin-8-yl)ethyl)amino)-N-(methylsulfonyl) picolinamide], the figures for the half-maximal inhibitory concentration (IC50) in test [1] and in test [2] were 0.25 to 0.5 µM and no less than 5 µM, respectively.
With `Cc1cc([C@@H](C)Nc2ccc(Cl)nc2C(=O)NS(C)(=O)=O)c2nc(N3C[C@@H]4C[C@]4(c4cnc(C)cn4)C3)n(C)c(=O)c2c1` (relative stereo) [Compound 750, 6-chloro-3-(((R)-1-(3,6-dimethyl-2-((1R*,5R*)-1-(5-methylpyrazin-2-yl)-3-azabicyclo[3.1.0]hexan-3-yl)-4-oxo-3,4-dihydroquinazolin-8-yl)ethyl)amino)-N-(methylsulfonyl) picolinamide], the IC50 in test [1] is 0.25 to 0.5 µM; in test [2], no less than 5 µM.
In the same order, the values of `Cc1cc([C@@H](C)Nc2ccc(Cl)nc2C(=O)NS(C)(=O)=O)c2nc(N3C[C@H]4C[C@@]4(c4cnc(C)nc4)C3)n(C)c(=O)c2c1` (relative stereo) [Compound 751, 6-chloro-3-(((R)-1-(3,6-dimethyl-2-((1R*,5S*)-1-(2-methylpyrimidin-5-yl)-3-azabicyclo[3.1.0]hexan-3-yl)-4-oxo-3,4-dihydroquinazolin-8-yl)ethyl)amino)-N-(methylsulfonyl) picolinamide] are 0.25 to 0.5 µM and no less than 5 µM.
Taken in the same sequence, the figures for `Cc1cc([C@@H](C)Nc2ccc(Cl)nc2C(=O)NS(C)(=O)=O)c2nc(N3C[C@@H]4CC4(c4cnc(C)nc4)C3)n(C)c(=O)c2c1` (relative stereo) [Compound 752, 6-chloro-3-(((R)-1-(3,6-dimethyl-2-((1R*,5R*)-1-(2-methylpyrimidin-5-yl)-3-azabicyclo[3.1.0]hexan-3-yl)-4-oxo-3,4-dihydroquinazolin-8-yl)ethyl)amino)-N-(methylsulfonyl) picolinamide] were 0.5 to 1 µM and no less than 5 µM.
For the compound `Cc1cc([C@@H](C)Nc2ccc(Cl)nc2C(=O)NS(C)(=O)=O)c2nc(N3C[C@@H]4C[C@H]3C[C@H]4c3nn(C)cc3F)n(C)c(=O)c2c1` (relative stereo) [Compound 761, 6-chloro-3-(((R)-1-(2-((1R*,4S*,5S*)-5-(4-fluoro-1-methyl-1H-pyrazol-3-yl)-2-azabicyclo[2.2.1]heptan-2-yl)-3,6-dimethyl-4-oxo-3,4-dihydroquinazolin-8-yl)ethyl)amino)-N-(methylsulfonyl) picolinamide], the half-maximal inhibitory concentration (IC50) was in the range of 0.25 to 0.5 µM in test [1] and 1 to 5 µM in test [2].
With `Cc1cc([C@@H](C)Nc2ccc(Cl)nc2C(=O)NS(C)(=O)=O)c2nc(N3CC[C@@H](c4ccnc(C)c4)C3)n(C)c(=O)c2c1` (relative stereo) [Compound 764, 6-chloro-3-(((R)-1-(3,6-dimethyl-2-((R*)-3-(2-methylpyridin-4-yl)pyrrolidin-1-yl)-4-oxo-3,4-dihydroquinazolin-8-yl)ethyl)amino)-N-(methylsulfonyl) picolinamide], the results for the half-inhibitory concentration (IC50) in test [1] and in test [2] were less than 0.25 µM and 1 to 5 µM, respectively.
Taken in the same sequence, the figures for `Cc1cc([C@@H](C)Nc2ccc(Cl)nc2C(=O)NS(C)(=O)=O)c2nc(N3CCC[C@@H](c4ccn(C(F)F)n4)C3)n(C)c(=O)c2c1` (relative stereo) [Compound 768, 6-chloro-3-(((R)-1-(2-((R*)-3-(1-(difluoromethyl)-1H-pyrazol-3-yl)piperidin-1-yl)-3,6-dimethyl-4-oxo-3,4-dihydroquinazolin-8-yl)ethyl)amino)-N-(methylsulfonyl) picolinamide] were 0.25 to 0.5 µM and no less than 5 µM.
For `Cc1cc([C@@H](C)Nc2ccc(Cl)nc2C(=O)NS(C)(=O)=O)c2nc(N3CC[C@H](c4ccnc(C)c4)C3)n(C)c(=O)c2c1` (relative stereo) [Compound 769, 6-chloro-3-(((R)-1-(3,6-dimethyl-2-((R*)-3-(2-methylpyridin-4-yl)pyrrolidin-1-yl)-4-oxo-3,4-dihydroquinazolin-8-yl)ethyl)amino)-N-(methylsulfonyl) picolinamide], the IC50 in test [1] is less than 0.25 µM; in test [2], 1 to 5 µM.
Turning to `Cc1cc([C@@H](C)Nc2ccc(Cl)nc2C(=O)NS(C)(=O)=O)c2nc(N3CCC[C@H](c4ccn(C(F)F)n4)C3)n(C)c(=O)c2c1` (relative stereo) [Compound 770, 6-chloro-3-(((R)-1-(2-((R*)-3-(1-(difluoromethyl)-1H-pyrazol-3-yl)piperidin-1-yl)-3,6-dimethyl-4-oxo-3,4-dihydroquinazolin-8-yl)ethyl)amino)-N-(methylsulfonyl) picolinamide], the results for the half-maximal inhibitory concentration (IC50) in test [1] and in test [2] were 0.25 to 0.5 µM and no less than 5 µM, respectively.
Take `Cc1cc([C@@H](C)Nc2ccc(Cl)nc2C(=O)NS(C)(=O)=O)c2nc(N3CCC[C@@H](c4ccnn4C(F)F)C3)n(C)c(=O)c2c1` (relative stereo) [Compound 771, 6-chloro-3-(((R)-1-(2-((R*)-3-(1-(difluoromethyl)-1H-pyrazol-5-yl)piperidin-1-yl)-3,6-dimethyl-4-oxo-3,4-dihydroquinazolin-8-yl)ethyl)amino)-N-(methylsulfonyl) picolinamide]: the results for the concentration for half-maximal inhibition (IC50) in test [1] and in test [2] were 0.25 to 0.5 µM and no less than 5 µM, respectively.

These data come from US12281122B1, “PI3K inhibitors” (Cogent Biosciences, Inc., priority 2023, dated 2025).
